Results from US10231965B2, “Molecules for administration to ROS1 mutant cancer cells” (Ignyta, Inc., priority 2014, dated 2019).
Entries after “also recorded” stand apart in the source; their conditions may differ.

How the values were obtained:
[1] = Dose escalation study in human patients with advanced solid tumors: PK; type: in vivo
Procedure: (§1) A dose escalation study of N-[5-(3,5-difluorobenzyl)-1H-indazol-3-yl]-4-(4-methyl-piperazin-1-yl)-2-(tetrahydro-2H-pyran-4-ylamino) benzamide was conducted in human patients with advanced solid tumors. N-[5-(3,5-difluorobenzyl)-1H-indazol-3-yl]-4-(4-methyl-piperazin-1-yl)-2-(tetrahydro-2H-pyran-4-ylamino) benzamide was dosed orally once/day in a 4 day on, 3 day off schedule for 3 weeks, followed by a 7 day rest period, in continuous 28-day cycles (Schedule A); once/day in continuous 28-day cycles (Schedule B); and once/day in a 4 day on, 3 day off schedule without interruption in continuous 28-day cycles (Schedule C). A minimum of 3 patients were enrolled at each dose level. Endpoints include safety, PK, and tumor response by response evaluation criteria in solid tumors (RECIST).
(§2) Schedule A evaluated ascending oral doses of N-[5-(3,5-difluorobenzyl)-1H-indazol-3-yl]-4-(4-methyl-piperazin-1-yl)-2-(tetrahydro-2H-pyran-4-ylamino) benzamide once daily (fasted state) in a 4-day on, 3-day off schedule for 3 weeks, followed by a 7-day rest period, in continuous 28-day cycles. Dose escalation was conducted according to the standard ‘3+3’ scheme.
(§3) Schedule B evaluated ascending oral doses of N-[5-(3,5-difluorobenzyl)-1H-indazol-3-yl]-4-(4-methyl-piperazin-1-yl)-2-(tetrahydro-2H-pyran-4-ylamino) benzamide once daily (fed state) without rest, in continuous 28-day cycles.
(§4) Schedule C evaluated ascending oral doses of N-[5-(3,5-difluorobenzyl)-1H-indazol-3-yl]-4-(4-methyl-piperazin-1-yl)-2-(tetrahydro-2H-pyran-4-ylamino) benzamide once daily (fed state) in a 4-day on, 3-day off schedule for 4 weeks without rest, in continuous 28-day cycles.

[2] = tested on: human patients with advanced solid tumors; assay: Dose escalation study in human patients with advanced solid tumors: safety, adverse events; type: in vivo
Procedure: as §1, §2, §3, §4

[3] = tested on: Non-Small Cell Lung Cancer (NSCLC); assay: Dose escalation study: tumor response by RECIST, NSCLC patients; type: in vivo, human
Procedure: as §1, §2, §3, §4

Colorectal Cancer (CRC) = assay: Dose escalation study: tumor response by RECIST, CRC patient; type: in vivo, human; conditions: person, metastatic CRC, TrkA rearrangement, 1600 mg/m^2, Schedule A
Procedure: as §1, §2, §3, §4

Neuroblastoma (NB) = assay: Dose escalation study: tumor response by RECIST, neuroblastoma patient; type: in vivo, human; conditions: person, metastatic NB, ALK mutation, Schedule A
Procedure: as §1, §2
Schedule B evaluated ascending oral doses of N-[5-(3,5-difluorobenzyl)-1H-indazol-3-yl]-4-(4-methyl-piperazin-1-yl)-2-(tetrahydro-2H-pyran-4-ylamino) benzamide once daily (fed state) without rest, in continuous 28-day cycles. […]

advanced solid tumors = assay: Dose escalation study: tumor response by RECIST, all patients; type: in vivo, human
Procedure: as §1, §2, §3, §4

CN1CCN(c2ccc(C(=O)Nc3n[nH]c4ccc(Cc5cc(F)cc(F)c5)cc34)c(NC3CCOCC3)c2)CC1 [N-[5-(3,5-difluorobenzyl)-1H-indazol-3-yl]-4-(4-methyl-piperazin-1-yl)-2-(tetrahydro-2H-pyran-4-ylamino) benzamide]
exposure at top dose (reason Schedule A was terminated) ([1]; Schedule A, 1600 mg/m2/day): plateau
mean plasma half-life ([1]; human patients, oral once/day, following administration): 17 to 44 h
Exposure versus dose ([1]; human patients, oral, dosing Schedule A): increased in an approximate dose proportional manner up to doses of 800 mg/m^2
Abdominal pain G1 (%) ([2]; 25 patients, all schedules): 16%
Abdominal pain G1, number of patients ([2]; 25 patients, all schedules): 4
Abdominal pain G2 (%) ([2]; 25 patients, all schedules): 8%
Abdominal pain G2, number of patients ([2]; 25 patients, all schedules): 2
Abdominal pain Total (%) ([2]; 25 patients, all schedules): 24%
Abdominal pain Total, number of patients ([2]; 25 patients, all schedules): 6
Arthralgia G1 (%) ([2]; 25 patients, all schedules): 12%
Arthralgia G1, number of patients ([2]; 25 patients, all schedules): 3
Arthralgia G2 (%) ([2]; 25 patients, all schedules): 12%
Arthralgia G2, number of patients ([2]; 25 patients, all schedules): 3
Arthralgia Total (%) ([2]; 25 patients, all schedules): 24%
Arthralgia Total, number of patients ([2]; 25 patients, all schedules): 6
Asthenia G1 (%) ([2]; 25 patients, all schedules): 36%
Asthenia G1, number of patients ([2]; 25 patients, all schedules): 9
Asthenia G2 (%) ([2]; 25 patients, all schedules): 12%
Asthenia G2, number of patients ([2]; 25 patients, all schedules): 3
Asthenia Total (%) ([2]; 25 patients, all schedules): 52%
Asthenia Total, number of patients ([2]; 25 patients, all schedules): 13
Back Pain G1 (%) ([2]; 25 patients, all schedules): 20%
Back Pain G1, number of patients ([2]; 25 patients, all schedules): 5
Back Pain G2 (%) ([2]; 25 patients, all schedules): 4%
Back Pain G2, number of patients ([2]; 25 patients, all schedules): 1
Back Pain Total (%) ([2]; 25 patients, all schedules): 24%
Back Pain Total, number of patients ([2]; 25 patients, all schedules): 6
Cough G1 (%) ([2]; 25 patients, all schedules): 16%
Cough G1, number of patients ([2]; 25 patients, all schedules): 4
Cough G2 (%) ([2]; 25 patients, all schedules): 4%
Cough G2, number of patients ([2]; 25 patients, all schedules): 1
Cough Total (%) ([2]; 25 patients, all schedules): 20%
Cough Total, number of patients ([2]; 25 patients, all schedules): 5
Diarrhea G1 (%) ([2]; 25 patients, all schedules): 24%
Diarrhea G1, number of patients ([2]; 25 patients, all schedules): 6
Diarrhea G2 (%) ([2]; 25 patients, all schedules): 8%
Diarrhea G2, number of patients ([2]; 25 patients, all schedules): 2
Diarrhea Total (%) ([2]; 25 patients, all schedules): 32%
Diarrhea Total, number of patients ([2]; 25 patients, all schedules): 8
Dysgeusia G1 (%) ([2]; 25 patients, all schedules): 24%
Dysgeusia G1, number of patients ([2]; 25 patients, all schedules): 6
Dysgeusia G2 (%) ([2]; 25 patients, all schedules): 0 (0) %
Dysgeusia G2, number of patients ([2]; 25 patients, all schedules): 0 (0)
Dysgeusia Total (%) ([2]; 25 patients, all schedules): 24%
Dysgeusia Total, number of patients ([2]; 25 patients, all schedules): 6
Dyspnea G1 (%) ([2]; 25 patients, all schedules): 12%
Dyspnea G1, number of patients ([2]; 25 patients, all schedules): 3
Dyspnea G2 (%) ([2]; 25 patients, all schedules): 4%
Dyspnea G2, number of patients ([2]; 25 patients, all schedules): 1
Dyspnea Total (%) ([2]; 25 patients, all schedules): 24%
Dyspnea Total, number of patients ([2]; 25 patients, all schedules): 6
Headache G1 (%) ([2]; 25 patients, all schedules): 24%
Headache G1, number of patients ([2]; 25 patients, all schedules): 6
Headache G2 (%) ([2]; 25 patients, all schedules): 0 (0) %
Headache G2, number of patients ([2]; 25 patients, all schedules): 0 (0)
Headache Total (%) ([2]; 25 patients, all schedules): 24%
Headache Total, number of patients ([2]; 25 patients, all schedules): 6
Myalgia G1 (%) ([2]; 25 patients, all schedules): 24%
Myalgia G1, number of patients ([2]; 25 patients, all schedules): 6
Myalgia G2 (%) ([2]; 25 patients, all schedules): 4%
Myalgia G2, number of patients ([2]; 25 patients, all schedules): 1
Myalgia Total (%) ([2]; 25 patients, all schedules): 28%
Myalgia Total, number of patients ([2]; 25 patients, all schedules): 7
Nausea G1 (%) ([2]; 25 patients, all schedules): 56%
Nausea G1, number of patients ([2]; 25 patients, all schedules): 14
Nausea G2 (%) ([2]; 25 patients, all schedules): 8%
Nausea G2, number of patients ([2]; 25 patients, all schedules): 2
Nausea Total (%) ([2]; 25 patients, all schedules): 64%
Nausea Total, number of patients ([2]; 25 patients, all schedules): 16
Paresthesia G1 (%) ([2]; 25 patients, all schedules): 60%
Paresthesia G1, number of patients ([2]; 25 patients, all schedules): 15
Paresthesia G2 (%) ([2]; 25 patients, all schedules): 0 (0) %
Paresthesia G2, number of patients ([2]; 25 patients, all schedules): 0 (0)
Paresthesia Total (%) ([2]; 25 patients, all schedules): 60%
Paresthesia Total, number of patients ([2]; 25 patients, all schedules): 15
Pyrexia G1 (%) ([2]; 25 patients, all schedules): 24%
Pyrexia G1, number of patients ([2]; 25 patients, all schedules): 6
Pyrexia G2 (%) ([2]; 25 patients, all schedules): 0 (0) %
Pyrexia G2, number of patients ([2]; 25 patients, all schedules): 0 (0)
Pyrexia Total (%) ([2]; 25 patients, all schedules): 24%
Pyrexia Total, number of patients ([2]; 25 patients, all schedules): 6
Vomiting G1 (%) ([2]; 25 patients, all schedules): 28%
Vomiting G1, number of patients ([2]; 25 patients, all schedules): 7
Vomiting G2 (%) ([2]; 25 patients, all schedules): 8%
Vomiting G2, number of patients ([2]; 25 patients, all schedules): 2
Vomiting Total (%) ([2]; 25 patients, all schedules): 36%
Vomiting Total, number of patients ([2]; 25 patients, all schedules): 9
possibly drug-related Grade >3 AE observed (asthenia), number ([2]; Grade 3 in one patient, 1200 mg/m^2, Schedule A, subsided with dose reduction to 800 mg/m^2/day): 1
severity of AEs ([2]; all dosing schedules tested): Most AEs<Grade 2
tolerability ([2]; all dosing schedules tested, intermittent and daily continuous): well tolerated in all dosing schedules tested
DLTs, study discontinuations due to AEs, drug-related SAEs ([2]; any dosing schedule): No drug limiting toxicities, study discontinuations due to adverse events, or drug-related serious adverse events were reported; also recorded: No DLTs, study discontinuations due to AEs, or drug-related SAEs were reported
most common adverse events (mainly grade 1-2) considered possibly treatment-related ([2]; human patients, oral): nausea, paresthesia, vomiting, diarrhea, asthenia, myalgia, arthralgia, and dysgeusia
possibly treatment-related grade 3 AE of asthenia, number ([2]; human patients, oral): one
tumor response ([3]; person one, ROS1 rearrangement, s/p 3 cycles of chemotherapy, 400 mg/m2/day, Schedule C): partial response
cycles until response achieved ([3]; person one, ROS1 rearrangement, 400 mg/m2/day, Schedule C): 1 cycle
tumor response ([3]; person two, ROS1 rearrangement, s/p 2 cycles of chemotherapy, 400 mg/m2/day, Schedule C): complete response
cycles until response achieved ([3]; person two, ROS1 rearrangement, 400 mg/m2/day, Schedule C): 2 cycles
cycles until response achieved ([3]; person, ALK rearrangement, 1200 mg/m2/day, Schedule A): 4 cycles
tumor response ([3]; person, CNS metastases, ROS1 rearrangement, s/p chemotherapy, erlotinib, 1200 mg/m^2/day, Schedule A): partial response
cycles until response achieved ([3]; person, CNS metastases, ROS1 rearrangement, 1200 mg/m^2/day, Schedule A): 2 cycles
tumor response ([3]; person, metastatic adenocarcinoma, ALK rearrangement, s/p chemotherapy, crizotinib, 1200 mg/m2/day, Schedule A): partial response
tumor response (Colorectal Cancer (CRC); s/p chemotherapy, cetuximab): partial response
cycles until response achieved (Colorectal Cancer (CRC)): 1 cycle
duration of partial response before progressive disease (Colorectal Cancer (CRC)): 4 cycles
cycles until response achieved (Neuroblastoma (NB); 200 to 1200 mg/m^2/day): 12 cycles
tumor response (Neuroblastoma (NB); started at 200 mg/m^2/day, escalated to 1200 mg/m^2/day): partial response
number of partial responses durable >9 cycles (advanced solid tumors; 25 patients evaluated): 3
number of partial responses (advanced solid tumors; 25 patients evaluated, NSCLC, CRC and NB with TrkA, ROS1, and ALK molecular alterations): 5
complete response (advanced solid tumors; 25 patients evaluated, patient with NSCLC with a ROS1 molecular alteration): a complete response
number of patients with prolonged stable disease (11+ cycles) (advanced solid tumors; NSCLC and pancreatic adenocarcinoma): 2
